Measured values reported in PMC3362725, “An open-label, phase 1 study evaluating safety, tolerability, and pharmacokinetics of linifanib (ABT-869) in Japanese patients with solid tumors” (Cancer Chemotherapy and Pharmacology, 2012).
“And” between values parts separate entries of the source, which are not always exact repeats. Equal values may be shown once. Read-outs that look alike come from different tables or passages of the source.

What was measured:
[1] = system: PlGF; test: Plasma PlGF biomarker (Abbott Architect kits); type: in vivo, human (Japanese patients with solid tumors)
Procedure: Plasma for biomarker analysis was collected before linifanib administration on C1D1, C1D15, C2D1, and at the final visit. Concentration of PlGF was determined using Abbott Architect® kits. The relationship of PlGF levels to outcomes was assessed post hoc. To assess the relationship between PlGF induction and toxicity, patients were grouped into those requiring and not requiring dose interruption during the first 30 days of therapy. Median PlGF increase from baseline to C1D15 was compared as a function of toxicity group. To assess the relationship between PlGF induction and efficacy, patients were segregated into those with progressive disease (PD; N = 6) or stable disease (SD; N = 10) at C6, and PlGF increase from baseline to C1D15 was compared.

[2] = set-up: method as in earlier work; settings: Caucasian patients, 0.25 mg/kg single dose, mean ± SD, N 13; cited from earlier work
[3] = system: HT1080 fibrosarcoma; set-up: method as in PMID 16648571; settings: predicted based on preclinical murine HT1080 fibrosarcoma model; cited from earlier work
[4] = system: solid tumors; test: Tumor response per RECIST (CT or MRI), phase 1 study; type: in vivo, human (Japanese patients with solid tumors)
Procedure: Baseline evaluations included physical examination, body weight, vital signs, 12-lead electrocardiogram, ECOG PS assessment, pregnancy test, laboratory tests, and multiple-gated acquisition scan/echocardiogram. Tumor response and/or disease progression was assessed by computerized tomography (CT) scan or magnetic resonance imaging (MRI) per RECIST [20] at screening and on Day (D) 1 of every second cycle prior to the subsequent treatment period, until tumor progression or until final visit. Complete response and partial response (PR) were defined according to RECIST [20]; objective response rate (ORR) was defined as the proportion of patients with best response of PR or CR among the study population. Safety assessments included laboratory test results and adverse events (AEs), which were graded according to CTCAE v3 [18] and coded by medical dictionary of regulatory activities (MedDRA) 1.0.

[5] = Pharmacokinetics of oral linifanib in plasma and urine, non-compartmental analysis, phase 1 study; type: in vivo, human (Japanese patients with solid tumors); settings: for DN AUC24 / DN C max: dose-normalized; for AUC: read-out: AUC24
Procedure: Pharmacokinetic sampling occurred pre-dose and 0.5, 1, 2, 3, 4, 6, 8, and 24 h after single-dose linifanib on Cycle (C) 1D1, and pre-dose and 0.5, 1, 2, 3, 4, 6, and 8 h after multiple once-daily doses on C1D15. Urine was collected for 24-h after the C1D15 dose. Linifanib and its metabolite concentrations in plasma and urine were determined using a validated method based on triple quadruple tandem mass spectrometry with a lower limit of quantification of 1.0 ng/mL.
Pharmacokinetic parameter (defined in Table 3) concentrations were determined by non-compartmental analysis using WinNonlin Professional v.5.2 (Pharsight Corp., Cary, NC). […] Additional samples were collected at C3D1 (pre-dose) and every second cycle until study completion or until C15D1. Concentrations for samples at C3D1 and subsequent samples, and data from C1D1 to C1D15 were included in the nonlinear mixed effects models to explore covariates such as age, body weight, and gender (data not shown). Following single-dose linifanib at 0.25 mg/kg, a post hoc analysis compared the pharmacokinetics between the Japanese patients in the current study and non-Japanese patients in two phase 1 studies: Caucasian patients receiving […] linifanib (Abbott, unpublished) and the non-Japanese segment of Asian patients receiving 0.10–0.30 mg/kg linifanib.

[6] = 0.05 mg/kg once daily, multiple dose (C1D15), mean ± SD, N 3
[7] = 0.05 mg/kg oral, single dose (C1D1), mean ± SD, N 3
[8] = 0.10 mg/kg once daily, multiple dose (C1D15), mean ± SD, N 5
[9] = 0.10 mg/kg oral, single dose (C1D1), mean ± SD, N 6
[10] = 0.20 mg/kg once daily, multiple dose (C1D15), mean ± SD, N 3
[11] = 0.20 mg/kg oral, single dose (C1D1), mean ± SD, N 3
[12] = 0.25 mg/kg once daily, multiple dose (C1D15), mean ± SD, N 5
[13] = 0.25 mg/kg oral, single dose (C1D1), mean ± SD, N 6
[14] = human, plasma, 0.1 mg/kg, 0.10 mg/kg oral, single dose (C1D1), mean ± SD, N 6
[15] = human, plasma, 0.2 mg/kg, 0.20 mg/kg oral, single dose (C1D1), mean ± SD, N 3
[16] = human, plasma, 0.05 mg/kg oral, single dose (C1D1), mean ± SD, N 3
[17] = human, plasma, 0.25 mg/kg oral, single dose (C1D1), mean ± SD, N 6

## Cc1ccc(F)c(NC(=O)Nc2ccc(-c3cccc4[nH]nc(N)c34)cc2)c1 [linifanib, N-(4-(3-amino-1H-indazol-4-yl)phenyl)-N’-(2-fluoro-5-methylphenyl)urea]
[1]; 0.05–0.25 mg/kg once daily
  induction of PlGF on C1D15 and C2D1: dose-dependent
[1]; 11 patients with dose interruption in first 30 days
  median (±SD) increase in PlGF from baseline to C1D15: 79.9 (±55.0) pg/mL
[1]; PD (n = 6) versus SD (n = 10) at C6, p = 0.7
  PlGF change from baseline to C1D15 as a function of response classification: No statistically significant difference
[1]; five patients without dose interruption in first 30 days, ±16.2
  median (±SD) increase in PlGF from baseline to C1D15: 22.8 pg/mL
[1]; patients no longer on therapy
  PlGF concentration at the final visit: returned to near baseline levels
[2]
  DN AUC24: 0.21 ± 0.04 µg·h/mL/mg
  DN C max: 0.018 ± 0.005 µg/mL/mg
  T max: 1.77 ± 0.44 h
[3]
  efficacious plasma exposure at steady state: ≥ 2700 ng·h/mL
[4]; 2 of 18 patients, RECIST
  ORR: 11.1%
[4]; 12/18 patients
  patients with tumor reduction >5% by RECIST: 67%
[4]; 18 patients
  patients with SD for ≥12 weeks: 11
[4]; 18 patients, 0.20 mg/kg (breast cancer) and 0.25 mg/kg (lung cancer)
  patients with confirmed PR: Two
[4]; of the 18 patients, cohorts 0.10, 0.20, and 0.25 mg/kg
  patients with reduction in summed tumor dimensions of ≥5%: 12 and 12/18
[4]; range 2.8–3.5
  median duration of response: 3.2 months
[4]; range 2.8–9.8
  median progression-free survival (PFS): 5.7 months
[4]; sarcoma, breast, lung, thymic cancer, best response SD
  patients who continued linifanib with clinical benefit for ≥48 weeks: Four
[5]; 0.05 mg/kg once daily, mean ± SD, N 3
  R (accumulation ratio calculated as DN AUC24 between D15 and D1): 1.58 ± 0.34
[5]; 0.10 mg/kg once daily, mean ± SD, N 5
  R (accumulation ratio calculated as DN AUC24 between D15 and D1): 1.46 ± 0.27
[5]; 0.20 mg/kg once daily, mean ± SD, N 3
  R (accumulation ratio calculated as DN AUC24 between D15 and D1): 1.56 ± 0.08
[5]; 0.25 mg/kg once daily, mean ± SD, N 5
  R (accumulation ratio calculated as DN AUC24 between D15 and D1): 1.46 ± 0.23
[5]; 0.10–0.25 mg/kg, single and once-daily dosing
  dose proportionality of pharmacokinetics: dose-proportional
[5]; [6]
  DN AUC24: 0.77 ± 0.18 µg·h/mL/mg
  DN C max: 0.051 ± 0.007 µg/mL/mg
[5]; [7]
  DN AUC24: 0.49 ± 0.08 µg·h/mL/mg
  DN C max: 0.036 ± 0.007 µg/mL/mg
[5]; [8]
  DN AUC24: 0.50 ± 0.11 µg·h/mL/mg
  DN C max: 0.034 ± 0.008 µg/mL/mg
[5]; [9]
  DN AUC24: 0.33 ± 0.04 µg·h/mL/mg
  DN C max: 0.026 ± 0.004 µg/mL/mg
[5]; [10]
  DN AUC24: 0.52 ± 0.02 µg·h/mL/mg
  DN C max: 0.036 ± 0.003 µg/mL/mg
[5]; [11]
  DN AUC24: 0.33 ± 0.01 µg·h/mL/mg
  DN C max: 0.028 ± 0.007 µg/mL/mg
[5]; [12]
  DN AUC24: 0.37 ± 0.06 µg·h/mL/mg
  DN C max: 0.028 ± 0.002 µg/mL/mg
[5]; [13]
  DN AUC24: 0.25 ± 0.02 µg·h/mL/mg
  DN C max: 0.019 ± 0.004 µg/mL/mg
[5]; [14]
  Cmax: 152 ± 36 ng/mL
  AUC: 1910 ± 380 ng·h/mL
[5]; human, plasma, 0.1 mg/kg, 0.10 mg/kg oral, single dose (C1D1), mean ± SD, N 6, read-out: T max
  Tmax: 1.67 ± 0.52 h
[5]; [15]
  Cmax: 305 ± 70 ng/mL
  AUC: 3600 ± 430 ng·h/mL
[5]; human, plasma, 0.2 mg/kg, 0.20 mg/kg oral, single dose (C1D1), mean ± SD, N 3, read-out: T max
  Tmax: 1.67 ± 0.57 h
[5]; human, plasma, oral, 0.1 mg/kg, 0.10 mg/kg once daily, multiple dose (C1D15), mean ± SD, N 5
  Cmax: 186 ± 64 ng/mL
[5]; human, plasma, oral, 0.1 mg/kg, 0.10 mg/kg once daily, multiple dose (C1D15), mean ± SD, N 5, read-out: T max
  Tmax: 2.2 ± 0.45 h
[5]; human, plasma, oral, 0.1 mg/kg, 0.10 mg/kg once daily, multiple dose (C1D15), pre-dose concentration assumed equal to 24 h, mean ± SD, N 5
  AUC: 2820 ± 1030 ng·h/mL
[5]; human, plasma, oral, 0.2 mg/kg, 0.20 mg/kg once daily, multiple dose (C1D15), mean ± SD, N 3
  Cmax: 390 ± 41 ng/mL
[5]; human, plasma, oral, 0.2 mg/kg, 0.20 mg/kg once daily, multiple dose (C1D15), mean ± SD, N 3, read-out: T max
  Tmax: 2.33 ± 0.58 h
[5]; human, plasma, oral, 0.2 mg/kg, 0.20 mg/kg once daily, multiple dose (C1D15), pre-dose concentration assumed equal to 24 h, mean ± SD, N 3
  AUC: 5630 ± 920 ng·h/mL
[5]; human, plasma, oral, after repeated daily dosing, associated with accumulation ratio 1.5, read-out: effective half-life (converted)
  half-life: 15 h
[5]; human, plasma, oral, 0.05 mg/kg once daily, multiple dose (C1D15), mean ± SD, N 3
  Cmax: 128 ± 17 ng/mL
[5]; human, plasma, oral, 0.05 mg/kg once daily, multiple dose (C1D15), mean ± SD, N 3, read-out: T max
  Tmax: 2.34 ± 0.57 h
[5]; human, plasma, oral, 0.05 mg/kg once daily, multiple dose (C1D15), pre-dose concentration assumed equal to 24 h, mean ± SD, N 3
  AUC: 1920 ± 450 ng·h/mL
[5]; human, plasma, oral, 0.25 mg/kg once daily, multiple dose (C1D15), mean ± SD, N 5
  Cmax: 418 ± 55 ng/mL
[5]; human, plasma, oral, 0.25 mg/kg once daily, multiple dose (C1D15), mean ± SD, N 5, read-out: T max
  Tmax: 2.2 ± 0.45 h
[5]; human, plasma, oral, 0.25 mg/kg once daily, multiple dose (C1D15), pre-dose concentration assumed equal to 24 h, mean ± SD, N 5
  AUC: 5460 ± 1160 ng·h/mL
[5]; [16]
  Cmax: 90 ± 18 ng/mL
  AUC: 1230 ± 210 ng·h/mL
[5]; human, plasma, 0.05 mg/kg oral, single dose (C1D1), mean ± SD, N 3, read-out: T max
  Tmax: 1.65 ± 0.56 h
[5]; [17]
  Cmax: 305 ± 68 ng/mL
  AUC: 3780 ± 480 ng·h/mL
[5]; human, plasma, 0.25 mg/kg oral, single dose (C1D1), mean ± SD, N 6, read-out: T max
  Tmax: 2.33 ± 1.03 h
[5]; human, plasma, across all dose levels (0.05–0.25 mg/kg oral), read-out: average T max
  Tmax: ~2 h
